Data: patent US20090118274A1, “MONOCYCLIC AMINOPROPYL TETRAHYDRO-PYRAZOLO-PYRIDINE MODULATORS OF CATHEPSIN S” (priority 2007, published 2009)

Each molecule was assayed against T1, Recombinant human cathepsin S (CatS) (Homo sapiens, UniProt P25774) (assay: Recombinant human cathepsin S (CatS) fluorogenic substrate inhibition assay). Details: not given.
T1 construct: made in house
Assay type: biochemical
Procedure: Recombinant human cathepsin S (CatS) was expressed in the baculovirus system and purified in one step with a thiopropyl-sepharose column. […] The assay is run in 150 mM sodium acetate pH 5.0 containing 1.5 mM DTT and 150 mM NaCl. […] Measurements are taken every min for 20 min. The rate is calculated from the slope of the increase in fluorescence and the percent inhibition is calculated from this.

T1 sequence (P25774 115-331): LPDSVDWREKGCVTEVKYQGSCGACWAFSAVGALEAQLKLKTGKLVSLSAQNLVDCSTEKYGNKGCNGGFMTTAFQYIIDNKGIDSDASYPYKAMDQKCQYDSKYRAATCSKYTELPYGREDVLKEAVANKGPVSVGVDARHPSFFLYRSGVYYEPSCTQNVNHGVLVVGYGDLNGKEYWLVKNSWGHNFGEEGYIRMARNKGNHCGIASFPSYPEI

CN1CCN(CC(O)Cn2nc(-c3ccc(C(F)(F)F)c(CNC(=O)c4ccc(F)cc4)c3)c3c2CCN(S(C)(=O)=O)C3)CC1 (stereo not drawn) [Example 227, 4-Fluoro-N-(5-{1-[2-hydroxy-3-(4-methyl-piperazin-1-yl)-propyl]-5-methanesulfonyl-4,5,6,7-tetrahydro-1H-pyrazolo[4,3-c]pyridin-3-yl}-2-trifluoromethyl-benzyl)-benzamide] was tested. Which IC50 did it give?
The IC50 was 760 nM.

CC(C)CC(=O)NCc1cc(-c2nn(CC(O)CN3CCC(N(C)C)C3)c3c2CN(S(C)(=O)=O)CC3)ccc1C(F)(F)F (stereo not drawn) [Example 249, N-(5-{1-[3-(3-Dimethylamino-pyrrolidin-1-yl)-2-hydroxy-propyl]-5-methanesulfonyl-4,5,6,7-tetrahydro-1H-pyrazolo[4,3-c]pyridin-3-yl}-2-trifluoromethyl-benzyl)-3-methyl-butyramide] was tested. Which IC50 did it give?
Its IC50 is 450 nM.

Same assay, conditions: average of results obtained; substrate Z-Valine-Valine-Arginine-AMC 10 μM, pH 5.0; read-out: CatS IC50

How did the IC50 turn out when CS(=O)(=O)N1CCc2c(c(-c3ccc(Cl)c(CNC(=O)/C=C/c4ccccc4)c3)nn2CCCN2CCCC2)C1 [Example 219, N-{2-Chloro-5-[5-methanesulfonyl-1-(3-pyrrolidin-1-yl-propyl)-4,5,6,7-tetrahydro-1H-pyrazolo[4,3-c]pyridin-3-yl]-benzyl}-3-phenyl-acrylamide] was run?
The IC50 was 640 nM.

Which IC50 does the source give for CS(=O)(=O)N1CCc2c(c(-c3ccc(Cl)c(CNC(=O)c4ccccc4)c3)nn2CC(O)CN2CCOCC2)C1 (stereo not drawn) [Example 220, N-{2-Chloro-5-[1-(2-hydroxy-3-morpholin-4-yl-propyl)-5-methanesulfonyl-4,5,6,7-tetrahydro-1H-pyrazolo[4,3-c]pyridin-3-yl]-benzyl}-benzamide] here?
The IC50 was 650 nM.

With C/N=c1/ccccn1CC(O)Cn1nc(-c2ccc(Cl)c(CNC(=O)c3ccc(F)cc3)c2)c2c1CCN(S(C)(=O)=O)C2 (stereo not drawn) [Example 221, N-(2-Chloro-5-{1-[2-hydroxy-3-(2-methylimino-2H-pyridin-1-yl)-propyl]-5-methanesulfonyl-4,5,6,7-tetrahydro-1H-pyrazolo[4,3-c]pyridin-3-yl}-benzyl)-4-fluoro-benzamide] as the molecule, how does the IC50 read?
The IC50 was 670 nM.

For CS(=O)(=O)N1CCc2c(c(-c3ccc(C(F)(F)F)c(CNC(=O)c4ccc(Cl)cc4)c3)nn2CC(O)CN2CCCC2)C1 (stereo not drawn) [Example 224, 4-Chloro-N-{5-[1-(2-hydroxy-3-pyrrolidin-1-yl-propyl)-5-methanesulfonyl-4,5,6,7-tetrahydro-1H-pyrazolo[4,3-c]pyridin-3-yl]-2-trifluoromethyl-benzyl}-benzamide], which IC50 is on record?
The IC50 was 730 nM.

For CS(=O)(=O)N1CCc2c(c(-c3ccc(C(F)(F)F)c(CNC(=O)c4ccc(C(F)(F)F)cc4)c3)nn2CC(O)CN2CCCC2)C1 (stereo not drawn) [Example 225, N-{5-[1-(2-Hydroxy-3-pyrrolidin-1-yl-propyl)-5-methanesulfonyl-4,5,6,7-tetrahydro-1H-pyrazolo[4,3-c]pyridin-3-yl]-2-trifluoromethyl-benzyl]-4-trifluoromethyl-benzamide], which IC50 is on record?
Its IC50 is 750 nM.

CS(=O)(=O)N1CCc2c(c(-c3ccc(C(F)(F)F)c(CNC(=O)c4ccc(Cl)c(Cl)c4)c3)nn2CC(O)CN2CCCC2)C1 (stereo not drawn) [Example 229, 3,4-Dichloro-N-{5-[1-(2-hydroxy-3-pyrrolidin-1-yl-propyl)-5-methanesulfonyl-4,5,6,7-tetrahydro-1H-pyrazolo[4,3-c]pyridin-3-yl]-2-trifluoromethyl-benzyl}-benzamide] was tested. Which IC50 did it give?
Its IC50 is 780 nM.

For CS(=O)(=O)N1CCc2c(c(-c3ccc(Cl)c(CNC(=O)c4ccccc4)c3)nn2CC(O)CN2CCCCC2)C1 (stereo not drawn) [Example 231, N-{2-Chloro-5-[1-(2-hydroxy-3-piperidin-1-yl-propyl)-5-methanesulfonyl-4,5,6,7-tetrahydro-1H-pyrazolo[4,3-c]pyridin-3-yl]-benzyl}-benzamide], which IC50 is on record?
Its IC50 is 800 nM.

CS(=O)(=O)N1CCc2c(c(-c3ccc(Cl)c(CNC(=O)c4cccnc4)c3)nn2CCCN2CCCC2)C1 [Example 232, N-{2-Chloro-5-[5-methanesulfonyl-1-(3-pyrrolidin-1-yl-propyl)-4,5,6,7-tetrahydro-1H-pyrazolo[4,3-c]pyridin-3-yl]-benzyl}-nicotinamide] was tested. Which IC50 did it give?
Its IC50 is 820 nM.

Which IC50 does the source give for CS(=O)(=O)N1CCc2c(c(-c3ccc(Cl)c(CNC(=O)c4ccncc4)c3)nn2CCCN2CCCC2)C1 [Example 235, N-{2-Chloro-5-[5-methanesulfonyl-1-(3-pyrrolidin-1-yl-propyl)-4,5,6,7-tetrahydro-1H-pyrazolo[4,3-c]pyridin-3-yl]-benzyl}-isonicotinamide] here?
The IC50 was 890 nM.

CS(=O)(=O)N1CCc2c(c(-c3ccc(C(F)(F)F)c(CNC(=O)c4ccc(F)cc4)c3)nn2CC(O)CN2CCNCC2)C1 (stereo not drawn) [Example 236, 4-Fluoro-N-{5-[1-(2-hydroxy-3-piperazin-1-yl-propyl)-5-methanesulfonyl-4,5,6,7-tetrahydro-1H-pyrazolo[4,3-c]pyridin-3-yl]-2-trifluoromethyl-benzyl}-benzamide] was tested. Which IC50 did it give?
Its IC50 is 900 nM.

With O=C(NCc1cc(-c2nn(CC(O)CN3CCC4(CCNC4=O)CC3)c3c2CNCC3)ccc1C(F)(F)F)c1ccc(F)cc1 (stereo not drawn) [Example 238, 4-Fluoro-N-(5-{1-[2-hydroxy-3-(1-oxo-2,8-diaza-spiro[4.5]dec-8-yl)-propyl]-4,5,6,7-tetrahydro-1H-pyrazolo[4,3-c]pyridin-3-yl}-2-trifluoromethyl-benzyl)-benzamide] as the molecule, how does the IC50 read?
The IC50 was 940 nM.

With CN(C)c1ccccc1C(=O)NCc1cc(-c2nn(CC(O)CN3CCCC3)c3c2CN(S(C)(=O)=O)CC3)ccc1C(F)(F)F (stereo not drawn) [Example 239, 2-Dimethylamino-N-{5-[1-(2-hydroxy-3-pyrrolidin-1-yl-propyl)-5-methanesulfonyl-4,5,6,7-tetrahydro-1H-pyrazolo[4,3-c]pyridin-3-yl]-2-trifluoromethyl-benzyl}-benzamide] as the molecule, how does the IC50 read?
Its IC50 is 950 nM.

With CC(=O)Nc1ccc(C(=O)NCc2cc(-c3nn(CC(O)CN4CCCC4)c4c3CN(S(C)(=O)=O)CC4)ccc2C(F)(F)F)cc1 (stereo not drawn) [Example 240, 4-Acetylamino-N-{5-[1-(2-hydroxy-3-pyrrolidin-1-yl-propyl)-5-methanesulfonyl-4,5,6,7-tetrahydro-1H-pyrazolo[4,3-c]pyridin-3-yl]-2-trifluoromethyl-benzyl}-benzamide] as the molecule, how does the IC50 read?
The IC50 was 970 nM.

CS(=O)(=O)N1CCc2c(c(-c3ccc(Cl)c(CNC(=O)c4cccs4)c3)nn2CCCN2CCCC2)C1 [Example 241, Thiophene-2-carboxylic acid 2-chloro-5-[5-methanesulfonyl-1-(3-pyrrolidin-1-yl-propyl)-4,5,6,7-tetrahydro-1H-pyrazolo[4,3-c]pyridin-3-yl]-benzylamide] was tested. Which IC50 did it give?
The IC50 was 970 nM.

CC(=O)N1CCC(C(=O)NCc2cc(-c3nn(CC(O)CN4CCCC4)c4c3CN(S(C)(=O)=O)CC4)ccc2C(F)(F)F)CC1 (stereo not drawn) [Example 242, 1-Acetyl-piperidine-4-carboxylic acid 5-[1-(2-hydroxy-3-pyrrolidin-1-yl-propyl)-5-methanesulfonyl-4,5,6,7-tetrahydro-1H-pyrazolo[4,3-c]pyridin-3-yl]-2-trifluoromethyl-benzylamide] was tested. Which IC50 did it give?
Its IC50 is 1030 nM.

How did the IC50 turn out when CC(C)CC(=O)NCc1cc(-c2nn(CC(O)CN3CCC(NC(=O)OC(C)(C)C)CC3)c3c2CN(S(C)(=O)=O)CC3)ccc1C(F)(F)F (stereo not drawn) [Example 244] was run?
Its IC50 is 50 nM.

For CC(C)CC(=O)NCc1cc(-c2nn(CC(O)CN3CCC(O)CC3)c3c2CN(S(C)(=O)=O)CC3)ccc1C(F)(F)F (stereo not drawn) [Example 245, N-(5-{1-[2-Hydroxy-3-(4-hydroxy-piperidin-1-yl)-propyl]-5-methanesulfonyl-4,5,6,7-tetrahydro-1H-pyrazolo[4,3-c]pyridin-3-yl}-2-trifluoromethyl-benzyl)-3-methyl-butyramide], which IC50 is on record?
Its IC50 is 270 nM.

For CC(C)CC(=O)NCc1cc(-c2nn(CC(O)CN3CCC(O)C3)c3c2CN(S(C)(=O)=O)CC3)ccc1C(F)(F)F (stereo not drawn) [Example 246, N-(5-{1-[2-Hydroxy-3-(3-hydroxy-pyrrolidin-1-yl)-propyl]-5-methanesulfonyl-4,5,6,7-tetrahydro-1H-pyrazolo[4,3-c]pyridin-3-yl}-2-trifluoromethyl-benzyl)-3-methyl-butyramide], which IC50 is on record?
The IC50 was 430 nM.

CC(C)CC(=O)NCc1cc(-c2nn(CC(O)CN3CCC(N(C)C)CC3)c3c2CN(S(C)(=O)=O)CC3)ccc1C(F)(F)F (stereo not drawn) [Example 247, N-(5-{1-[3-(4-Dimethylamino-piperidin-1-yl)-2-hydroxy-propyl]-5-methanesulfonyl-4,5,6,7-tetrahydro-1H-pyrazolo[4,3-c]pyridin-3-yl}-2-trifluoromethyl-benzyl)-3-methyl-butyramide] was tested. Which IC50 did it give?
Its IC50 is 420 nM.

CC(=O)NC1CCN(CC(O)Cn2nc(-c3ccc(C(F)(F)F)c(CNC(=O)CC(C)C)c3)c3c2CCN(S(C)(=O)=O)C3)CC1 (stereo not drawn) [Example 250, N-(5-{1-[3-(4-Acetylamino-piperidin-1-yl)-2-hydroxy-propyl]-5-methanesulfonyl-4,5,6,7-tetrahydro-1H-pyrazolo[4,3-c]pyridin-3-yl}-2-trifluoromethyl-benzyl)-3-methyl-butyramide] was tested. Which IC50 did it give?
Its IC50 is 50 nM.

With CC(C)CC(=O)NCc1cc(-c2nn(CC(O)CN3CCC(C)(C)CC3)c3c2CN(S(C)(=O)=O)CC3)ccc1C(F)(F)F (stereo not drawn) [Example 251, N-(5-{1-[3-(4,4-Dimethyl-piperidin-1-yl)-2-hydroxy-propyl]-5-methanesulfonyl-4,5,6,7-tetrahydro-1H-pyrazolo[4,3-c]pyridin-3-yl}-2-trifluoromethyl-benzyl)-3-methyl-butyramide] as the molecule, how does the IC50 read?
Its IC50 is 300 nM.

CC(C)CC(=O)NCc1cc(-c2nn(CC(O)CN3CCC(NS(C)(=O)=O)CC3)c3c2CN(S(C)(=O)=O)CC3)ccc1C(F)(F)F (stereo not drawn) [Example 255, N-(5-{1-[2-Hydroxy-3-(4-methanesulfonylamino-piperidin-1-yl)-propyl]-5-methanesulfonyl-4,5,6,7-tetrahydro-1H-pyrazolo[4,3-c]pyridin-3-yl}-2-trifluoromethyl-benzyl)-3-methyl-butyramide] was tested. Which IC50 did it give?
Its IC50 is 160 nM.
